What was measured:
[1] = biological target: T1, TgPhyA (Toxoplasma gondii, UniProt A0A7J6K353); assay: 1H NMR of 2OG conversion to succinate; assay type: biochemical; settings: uncoupled (no Skp1); enzyme 20 μM, 2OG 500 μM, Fe(II) 50 μM, ascorbate 1 mM, Tris-D11 pH 7.5, room temperature
T1 construct: gene TGRH88_076950; full-length, recombinant; purification in Supporting information
T1 sequence (A0A7J6K353 1-271): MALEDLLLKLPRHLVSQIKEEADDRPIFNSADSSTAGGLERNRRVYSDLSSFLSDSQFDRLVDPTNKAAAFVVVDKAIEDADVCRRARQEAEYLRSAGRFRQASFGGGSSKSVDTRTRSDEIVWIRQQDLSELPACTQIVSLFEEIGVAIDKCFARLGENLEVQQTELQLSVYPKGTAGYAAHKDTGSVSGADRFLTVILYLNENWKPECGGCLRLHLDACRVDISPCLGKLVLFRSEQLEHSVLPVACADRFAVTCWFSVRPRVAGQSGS

[2] = biological target: T2, DdPhyA (Dictyostelium discoideum, UniProt Q86KR9); assay: differential scanning fluorimetry, SYPRO Orange; assay type: binding; settings: with metal (Ni(II)); 25-80 °C; construct (full-length or truncated) not told in main text
T2 construct: gene phyA; full-length aa 1-284, E. coli BL21 Gold (DE3), N-terminal His6-ZBasic tag cleaved by TEV, EDTA-treated to remove metal

[3] = biological target: T3, DdPhyA(60-284) (Dictyostelium discoideum, UniProt Q86KR9); assay: X-ray crystallography, […] Å; assay type: binding; settings: Ni(II) in place of Fe(II); active site, bidentate to metal, no Skp1 substrate
T3 construct: gene phyA; catalytic domain residues 60-284 (once printed 60-286), E. coli, His6-ZBasic tag cleaved; 3 molecules per asymmetric unit; Ni(II) substituting for Fe(II)
From the text: The C-5 carboxylate of NOG is bound

[4] = biological target: T1, TgPhyA; assay: differential scanning fluorimetry, SYPRO Orange; assay type: binding; settings: with metal (Ni(II)); 25-80 °C

T2 sequence (Q86KR9 whole entry, the tested form may be a part): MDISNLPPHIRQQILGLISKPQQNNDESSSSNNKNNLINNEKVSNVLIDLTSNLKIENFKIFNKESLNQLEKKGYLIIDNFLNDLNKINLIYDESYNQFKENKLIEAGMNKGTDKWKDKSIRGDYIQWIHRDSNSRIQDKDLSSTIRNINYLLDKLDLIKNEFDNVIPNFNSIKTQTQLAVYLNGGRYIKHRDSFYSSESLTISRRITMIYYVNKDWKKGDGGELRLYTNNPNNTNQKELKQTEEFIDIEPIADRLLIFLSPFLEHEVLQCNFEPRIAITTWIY
T3 sequence (Q86KR9 60-284): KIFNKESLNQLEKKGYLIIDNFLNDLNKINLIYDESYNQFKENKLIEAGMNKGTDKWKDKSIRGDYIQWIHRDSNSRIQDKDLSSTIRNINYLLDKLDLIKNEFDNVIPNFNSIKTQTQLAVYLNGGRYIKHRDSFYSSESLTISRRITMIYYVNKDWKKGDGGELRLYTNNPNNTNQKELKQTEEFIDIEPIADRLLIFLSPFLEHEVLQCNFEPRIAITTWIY

## O=C(O)CCC(=O)C(=O)O [2OG]
[1]
  2OG turnover: TgPhyA exhibited substantial uncoupled 2OG turnover in the absence of substrate

## O=C(O)CNC(=O)C(=O)O [NOG]
[2]
  Tm shift: Ni(II) ions and N-oxalylglycine (a stable 2OG analog, Fig. S9) stabilize the enzymes
[3]
  X-ray crystallography, 2.02 Å: the latter in a bidentate manner. The C-5 carboxylate of NOG is bound
[4]
  Tm shift: Ni(II) ions and N-oxalylglycine (a stable 2OG analog, Fig. S9) stabilize the enzymes

From PMC7864055, “Biochemical and biophysical analyses of hypoxia sensing prolyl hydroxylases from Dictyostelium discoideum and Toxoplasma gondii” (The Journal of Biological Chemistry, 2021)
